pIC50: −log10 of the molar value. Some results are limits rather than exact numbers.

Consider 16 compounds from patent publication US11390606B2, “Pyridazinone compounds and uses thereof” (Edgewise Therapeutics, Inc., priority 2018, dated 2022).

This assay has as its target T1, skeletal myofibrils (Rabbit Psoas), myosin ATPase activity.
T1 construct: Rabbit Psoas Prep 11 (0.25 mg/mL)
The experiment in a line: Skeletal Myofibril ATPase Assay. In kind it is biochemical. The settings on record: skeletal myofibrils (Rabbit Psoas 0.25 mg/mL), PK/LDH-coupled NADH absorbance at 340 nm. The protocol:
Overview: Myosin ATPase activity is assessed by using a coupled reaction system, in which ADP generated by the myosin ATPase function is coupled to the disappearance of NADH through the pyruvate kinase/lactate dehydrogenase (PK-LDH) system. Myosin ATPase activity produces ADP, which is used as a substrate for PK to produce pyruvate and regenerate ATP. The pyruvate is then used as a substrate by LDH to oxidize NADH to NAD+. The rate of the reaction is monitored through the time-dependent disappearance of NADH using absorbance at 340 nm. Inhibition of ATPase activity by the assayed compounds is indicated by a reduced rate of NADH loss, relative to vehicle-treated controls, over the experimental time window. To assess the selectivity of the assayed compounds for skeletal myofibrils, the compounds are counter-screened in cardiac myofibrils.
Materials: The following stock solutions and reagents were used in the Skeletal Myofibril ATPase Assay:
Stock Solutions of pCa buffer. Combine PIPES, CaCl2, and EGTA solutions with 70 mL of water. Adjust pH to 7.0 and bring final volume to 100 mL.
Buffer A & Buffer B. Buffers were stored on ice until use.
Skeletal Myofibril ATPase Assay Procedure: BSA, ATP, NADH, PEP, and DTT solutions were thawed at room temperature, then transferred to ice. Pellet-frozen myofibrils were transferred with approximately twice the required volume into a sufficiently large tube and capped. Myofibrils were thawed by rolling in a water bath for approximately 15 min at room temperature and cooled on ice. Buffers A and B were prepared by adjusting volumes as necessary for required number of wells and stored on ice. 0.5 μL of the compounds to be assayed were added into wells. 25 μL of Buffer A was dispensed into the wells, followed by 25 μL of Buffer B. The wells were measured for absorbance at 340 nm, using a kinetic protocol in which the wells are read every 1.5-2 min for 45 min. The slope of the data was approximated by subtracting the minimum absorbance value from the maximum value for each well. This was accomplished either in the SoftMax Pro software or in a spreadsheet program such as Excel. Using GraphPad Prism 8.0, the data was normalized by assigning a value of 100% to the 1% DMSO vehicle wells. Typically, a normalized 0% value was simply assigned to a (Max−Min) value of 0. The normalized data was fit to a Four Parameter Logistic sigmoidal equation, constraining the bottom to be 0 or greater. Compounds of Table 1 to 4 were tested and results of the assay appear in Table 5 herein. A=IC50 is less than or equal to 10 μM; B=IC50 is greater than 10 μM and less than 100 μM; C=IC50 is greater than 100 μM.

As for `O=c1ccc(-c2cnc(OCCOC(F)F)nc2)nn1Cc1ccc(Cl)cc1` [Compound 1, 2-(4-chlorobenzyl)-6-(2-(2-(difluoromethoxy)ethoxy)pyrimidin-5-yl)pyridazin-3(2H)-one], the pIC50 was greater than 5.00. Take `O=c1ccc(-c2cnc(OCCOC(F)(F)F)nc2)nn1Cc1ccc(Cl)cc1` [Compound 2, 2-(4-chlorobenzyl)-6-(2-(2-(trifluoromethoxy)ethoxy)pyrimidin-5-yl)pyridazin-3(2H)-one]: the pIC50 is greater than 5.00. Regarding `O=c1ccc(-c2cnc(N3CC(C(F)(F)F)C3)nc2)nn1Cc1ccc(Cl)cc1` [Compound 4, 2-(4-chlorobenzyl)-6-(2-(3-(trifluoromethyl)azetidin-1-yl)pyrimidin-5-yl)pyridazin-3(2H)-one], the pIC50 was greater than 5.00. As for `O=c1ccc(-c2cnc(OCC(F)(F)F)nc2)nn1Cc1ccc(Cl)cc1` [Compound 5, 2-(4-chlorobenzyl)-6-(2-(2,2,2-trifluoroethoxy)pyrimidin-5-yl)pyridazin-3(2H)-one], the pIC50 is greater than 5.00. `O=c1ccc(-c2cnc(NCC(F)(F)F)nc2)nn1Cc1ccc(Cl)cc1` [Compound 6, 2-(4-chlorobenzyl)-6-(2-((2,2,2-trifluoroethyl)amino)pyrimidin-5-yl)pyridazin-3(2H)-one] showed a pIC50 greater than 5.00.

In the case of `O=c1ccc(-c2cnc(OCC(F)(F)F)nc2)nn1Cc1ccc(O)c(Cl)c1` [Compound 7, 2-(3-chloro-4-hydroxybenzyl)-6-(2-(2,2,2-trifluoroethoxy)pyrimidin-5-yl)pyridazin-3(2H)-one], the pIC50 is greater than 5.00.

On to `O=c1ccc(-c2cnc(NC3CC3)nc2)nn1Cc1ccc(Cl)cc1` [Compound 8, 2-(4-chlorobenzyl)-6-(2-(cyclopropylamino)pyrimidin-5-yl)pyridazin-3(2H)-one], for which the pIC50 was greater than 5.00. `O=c1ccc(-c2cnc(N3CC(OC(F)F)C3)nc2)nn1Cc1ccc(Cl)cc1` [Compound 9, 2-(4-chlorobenzyl)-6-(2-(3-(difluoromethoxy)azetidin-1-yl)pyrimidin-5-yl)pyridazin-3(2H)-one]: the pIC50 is greater than 5.00.

For the compound `O=c1ccc(-c2cnc(OC(F)F)nc2)nn1Cc1ccc(Cl)cc1` [Compound 10, 2-(4-chlorobenzyl)-6-(2-(difluoromethoxy)pyrimidin-5-yl)pyridazin-3(2H)-one], the pIC50 is greater than 5.00. In the case of `O=c1ccc(-c2ccc(OCC(F)(F)F)nc2)nn1Cc1ccc(Cl)cc1` [Compound 11, 2-(4-chlorobenzyl)-6-(6-(2,2,2-trifluoroethoxy)pyridin-3-yl)pyridazin-3(2H)-one] it was greater than 5.00; in that of `CNc1ncc(-c2ccc(=O)n(Cc3ccc(Cl)cc3)n2)cn1` [Compound 12, 2-(4-chlorobenzyl)-6-(2-(methylamino)pyrimidin-5-yl)pyridazin-3(2H)-one], greater than 5.00; in that of `O=c1ccc(-c2ccc(OC(F)(F)F)nc2)nn1Cc1ccc(Cl)cc1` [Compound 13, 2-(4-chlorobenzyl)-6-(6-(trifluoromethoxy)pyridin-3-yl)pyridazin-3(2H)-one], greater than 5.00. In turn, `O=c1ccc(-c2cnc(N3CC4(C3)CC(F)(F)C4)nc2)nn1Cc1ccc(Cl)cc1` [Compound 14, 2-(4-chlorobenzyl)-6-(2-(6,6-difluoro-2-azaspiro[3.3]heptan-2-yl)pyrimidin-5-yl)pyridazin-3(2H)-one] showed a pIC50 greater than 5.00. In the case of `O=c1ccc(-c2ccc(OC(F)F)nc2)nn1Cc1ccc(Cl)c(F)c1` [Compound 15, 2-(4-chloro-3-fluorobenzyl)-6-(6-(difluoromethoxy)pyridin-3-yl)pyridazin-3(2H)-one] it was greater than 5.00; in that of `CC1CCCN1c1ncc(-c2ccc(=O)n(Cc3ccc(F)cc3F)n2)cn1` (stereo not shown) [Compound 16, 2-(2,4-difluorobenzyl)-6-(2-(2-methylpyrrolidin-1-yl)pyrimidin-5-yl)pyridazin-3(2H)-one], greater than 5.00; in that of `COc1ccc(-c2ccc(=O)n(Cc3ccc(Cl)cc3)n2)cn1` [Compound 17, 2-(4-chlorobenzyl)-6-(6-methoxypyridin-3-yl)pyridazin-3(2H)-one], greater than 5.00.
